Measured values taken from patent US5108900A, “Monoclonal antibodies to synthetic pyrethroids and method for detecting the same” (Regents of the University of California, priority 1989, dated 1992).

How the values were obtained:
[1] = background; cited from earlier work
[2] = cited from earlier work; for oncogenicity listing by U.S. Environmental Protection Agency: Regulating Pesticides in Food: The Delaney Paradox, 1987; for mammalian toxicity: background
monoclonal antibody Py-1 = assay: Competition ELISA (cELISA), monoclonal antibody Py-1, 3-pba-BSA coated plates; type: binding, mouse; details: for I50 values observed for competitors (FIG. 4) / Average 50% inhibition values (I50), Py-1: Py-1; for Average 50% inhibition values (I50), Py-1: Table I, averages from at least 12 assays
Method: (§1) The binding specificities of antibodies to standards and assay samples were evaluated by competition ELISA assays. In a competition assay system, an antigen, which is a large molecule with protein or carbohydrate moieties which can precisely bind with steric interaction with the conformation of the antibodies is fixed to the reaction surface of a test plate, and antigen-specific antibody is added along with an aliquot of sample extract or standard test solution. The free-floating antibody partitions between the fixed antigen bound to the test reaction surface and the antigen of the added sample or standard which is free-floating in the solution. After a reaction period, the free-floating antigen-antibody complex is washed away. The plate is rewashed and incubated with an enzyme-tagged indicator molecule which will immunospecifically bind to proteins of the animal species which was the source of the pyrethroid-specific antibodies. Substrate and buffer are provided for the reaction of the enzyme-tagged indicator molecule. The optical signal from the enzyme substrate reaction indicates the amount of pyrethroid-specific antibody which remains bound to the immobilized antigen on the reaction plate. The utility of such a reaction system is dependent on the surface binding of the antigenic hapten-protein complex. The sensitivity of such a binding system can be amplified by coupling the enzyme reaction endpoint to a biotin-avidin complex. Optimal enzyme sensitivity occurs when a minimal amount of coating antigen (3-pba-BSA) is used.
(§2) A competition enzyme-linked immunosorbent assay (c-ELISA) was developed to quantify permethrin standards in solution and to assess the specificity of the antibodies for various natural and synthetic pyrethroids. […] The 3-pba conjugate could be prepared by using EDC (1-ethyl-3-(3-dimethylaminopropyl)carbodiimide) as a cross-linking agent. The 3-pba conjugate was used as the coating agent for all subsequent experiments. Microtiter plates were coated with 0.5 μg/well 3-pba-BSA and blocked with ovalbumin.
(§3) In the competition ELISA, the competitors were dissolved in acetonitrile and were added to phosphate-buffered saline(PBS)-Tween buffer such that the resulting solution was 6% acetonitrile. Competitor was added so that each well contained 100 μl of competitor in a 6% acetonitrile-PBS solution. An equal volume of PBS containing monoclonal antibody was added such that there was a final concentration assay buffer containing antibody and competitor. These antibodies can tolerate up to 5% acetonitrile without loss of activity. The plates were incubated for one hour at 37° C. and the endpoint assessed by observation of the color change of p-nitrophenyl phosphate substrate actuated by alkaline phosphatase conjugated to goat anti-mouse antibody.
(§4) Because the sensitivity of c-ELISA's can be influenced by both the amount of specific anti-hapten antibody used and the amount of immobilized antigen, both of these parameters were optimized. In the preferred method, the amount of antigen used to coat the microtiter plates was varied from 10-0.5 μg/well, with 0.5 μg/well being more preferred. The method of application of the antigen to the plate was important to the assay. Antigen could be absorbed onto the wells overnight at 4° C. or antigen could be allowed to evaporate from the antigen solution onto the wells at 37° C. Using Py-1 antibody and permethrin as competitor, maximal sensitivity was observed when the antigen was allowed to evaporate onto the wells. In the preferred method microliter plates were prepared by evaporation of 100 μl of a 5 μg/mL solution of coating antigen (3-pba-BSA) at 37° C..
The antibody Py-1 was titrated against immobilized antigen (0.5 μg […]/well) in a direct binding ELISA. At a Py-1 antibody concentration of 0.02 μg/well, the level used in subsequent cELISA's, 40% of the plateau activity was reached. […]

monoclonal antibody Py-4 = assay: Competition ELISA (cELISA), monoclonal antibody Py-4, 3-pba-BSA coated plates; type: binding, mouse; details: for Average 50% inhibition values (I50), Py-4: Table I, averages from at least 12 assays
Method: as §1, §2, §3
as §4, with “C.. […]” for “C..”
(§5) The competition ELISA data was normalized using 100% activity as the optical density in wells in which antibody bound to the solid phase antigen (3-pba-BSA) in the absence of any competitor. The test wells, each containing different amounts of competitor, were normalized to the 100% activity wells. […]

monoclonal antibody Py-3 = assay: Competition ELISA (cELISA), monoclonal antibody Py-3, 3-pba-BSA coated plates; type: binding, mouse; details: for Average 50% inhibition values (I50), Py-3: Table I, averages from at least 12 assays
Method: as §1, §2, §3
as §4, with “C.. […]” for “C..”
as §5

[3] = tested on: Antibodies selected for their binding to the analog hapten of permethrin; assay: Antibody response to hapten and related pyrethroids; parameters: species or system mouse
Source text: Synthetic pyrethroids are small organic molecules, and in an effort to render such a molecule immunogenic, it was necessary to conjugate such molecules to carrier protein. Various modifications of synthetic pyrethroids can be made to achieve this purpose.

| Structure (SMILES) | I50 values observed for competitors (FIG. 4) (monoclonal antibody Py-1) [ng/well] | Average 50% inhibition values (I50), Py-4 (monoclonal antibody Py-4) [nanograms] | Average 50% inhibition values (I50), Py-3 (monoclonal antibody Py-3) [nanograms] | Average 50% inhibition values (I50), Py-1 (monoclonal antibody Py-1) [nanograms] | other results |
| --- | --- | --- | --- | --- | --- |
| C=CCC1=C(C)C(OC(=O)[C@@H]2[C@@H](C=C(C)C)C2(C)C)CC1=O (stereo partly shown) [bioallethrin] |  |  |  |  | stability in the air and water [1]: unstable character |
| CC1(C)C(C=C(Cl)Cl)C1C(=O)OCc1cccc(Oc2ccccc2)c1 (mixture of isomers) [Permethrin, 3-phenoxybenzyl (lRS),cis,trans-3(2,2-dichlorovinyl)-2,2-dimethylcyclopropanecarboxylate] | 1.7 | 12 | 1.7 |  | oncogenicity listing by U.S. Environmental Protection Agency [2]: potentially oncogenic; mammalian toxicity [2]: low mammalian toxicity; concentration which caused a 50% inhibition (I50) of antibody activity, Py-1 (monoclonal antibody Py-1; FIG. 3, in words): low nanogram range; 50% inhibition value, Py-1 (monoclonal antibody Py-1; Table 1, ng of competitor): 1.5 ng; Average 50% inhibition values (I50), Py-1 (monoclonal antibody Py-1; listed as Permethrin (mixed isomers)): 1.5 nanograms; concentration which caused a 50% inhibition (I50) of antibody activity, Py-4 (monoclonal antibody Py-4; FIG. 3, in words): low nanogram range; 50% inhibition value, Py-4 (monoclonal antibody Py-4; Table 1, ng of competitor): 12 ng; concentration which caused a 50% inhibition (I50) of antibody activity, Py-3 (monoclonal antibody Py-3; FIG. 3, in words): low nanogram range; 50% inhibition value, Py-3 (monoclonal antibody Py-3; Table 1, ng of competitor): 1.7 ng; responsiveness of antibodies [3]: similarly responsive; stability [1]: more stable |
| CC(C)=CC1C(C(=O)O)C1(C)C (stereo not shown) [Chrysanthemic acid] |  |  |  | > 600 |  |
| CC1(C)C(C(=O)O)C1C(=O)OCc1cccc(Oc2ccccc2)c1 (stereo not shown) [Hapten] |  | 0.6 | 0.3 | 2 | responsiveness of antibodies [3]: similarly responsive |
| O=C(O)c1cccc(Oc2ccccc2)c1 [3-Phenoxybenzoic acid] |  | 330 | 140 | 200 |  |
| CC1(C)C(C=C(Cl)Cl)C1C(=O)OCc1cccc(Oc2ccccc2)c1 [Permethrin (trans isomers)] |  |  |  | 1.7 |  |
| CC(C)C(C(=O)OC(C#N)c1cccc(Oc2ccccc2)c1)c1ccc(Cl)cc1 (stereo not shown) [Fenvalerate, cyano(3-phenoxyphenyl)methyl 4-chloroalpha-(1-methylethyl)benzeneacetate] | 350 | 4000 | 160 | 350 |  |
| C=CCC1=C(C)C(OC(=O)C2C(C=C(C)C)C2(C)C)CC1=O (stereo not shown) [allethrin] |  |  |  |  | stability in the air and water [1]: unstable character |
| O=Cc1cccc(Oc2ccccc2)c1 [3-Phenoxybenzaldehyde] |  |  |  | 22 |  |
| CC(C)=CC1C(C(=O)OCN2C(=O)C3=C(CCCC3)C2=O)C1(C)C (mixture of isomers) [Tetramethrin, N-(3,4,5,6-tetrahydrophthalimino) methyl (dl)-cis,trans-chrysanthemate] |  |  |  | > 600 |  |
| CC1(C)C(C(=O)OC(C#N)c2cccc(Oc3ccccc3)c2)C1(C)C (stereo not drawn) [Fenpropathrin, alpha-cyano-3-phenoxybenzyl-2,2,3,3-tetramethylcyclopropanecarboxylate] |  | 25 | 10 | 17 |  |
| CC(C)[C@H](C(=O)OC(C#N)c1cccc(Oc2ccccc2)c1)c1ccc(OC(F)F)cc1 (stereo partly drawn) [Flucythranate, cyano(3-phenoxyphenyl)methyl(S)-4-(difluoromethoxy)-alpha-(1-methylethyl) benzeneacetate] |  | 275 | 45 | 120 |  |
| CC(C)=CC1C(C(=O)OCc2cccc(Oc3ccccc3)c2)C1(C)C (mixture of isomers) [Phenothrin, 3-phenoxybenzyl(lRS)cis,transchrysanthemate] | 1.5 | 6 | 0.5 | 1.5 | responsiveness of antibodies [3]: similarly responsive |
| CC1(C)C(C=C(Cl)Cl)C1C(=O)OC(C#N)c1cccc(Oc2ccccc2)c1 (mixture of isomers) [Cypermethrin, alpha-cyano-3-phenoxybenzyl cis, trans-3-(2,2-dichlorovinyl)-2,2-dimethylcyclopropanecarboxylate] | 30 | 22 | 20 | 30 | oncogenicity listing by U.S. Environmental Protection Agency [2]: potentially oncogenic; mammalian toxicity [2]: low mammalian toxicity; stability [1]: more stable |
| CC1(C)[C@H](C(=O)O[C@H](C#N)c2cccc(Oc3ccccc3)c2)[C@@H]1C=C(Br)Br (racemic) [Deltamethrin, -/+alpha-cyano-3-phenoxybenzyl-(+/-)-cis,trans-3-(2,2-dibromovinyl)-2,2-dimethylcyclopropanecarboxylate] | 15 | 10 | 10 | 15 | mammalian toxicity [2]: low mammalian toxicity; stability [1]: more stable |
